For the experiment, the system named is MV-4-11 cells. Put plainly: Gene expression microarray analysis (Affymetrix PrimeView) and GSEA. In kind it is cell-based, human. Set-up: RFU PODN (11730768_x_at) / Fold change /veh PODN (11730768_x_at) / RFU LINC00158 (11744669_a_at) / Fold change /veh LINC00158 (11744669_a_at) / RFU DUSP10 (11751237_a_at) / Fold change /veh DUSP10 (11751237_a_at) / RFU ID3 (11757404_x_at) / Fold change /veh ID3 (11757404_x_at) / RFU PLEKHG5 (11737974_s_at) / Fold change /veh PLEKHG5 (11737974_s_at) / RFU LRRC4B (11730491_at) / Fold change /veh LRRC4B (11730491_at) / RFU GIMAP4 (11747438_a_at) / Fold change /veh GIMAP4 (11747438_a_at) / RFU KRT8 (11758183_x_at) / Fold change /veh KRT8 (11758183_x_at) / RFU CNN1 (11734310_a_at) / Fold change /veh CNN1 (11734310_a_at) / RFU VPS37D (11726825_at) / Fold change /veh VPS37D (11726825_at) / RFU C10orf10 (11716522_x_at) / Fold change /veh C10orf10 (11716522_x_at) / RFU KIR2DL2 /// KIR2DL4 /// KIR2DL5A /// KIR2DL5B /// KIR2DS1 /// KIR2DS2 /// KIR2DS3 /// KIR2DS4 /// KIR3DL3 /// KIR3DL3 /// KIR3DS1 (11738374_at) / Fold change /veh KIR2DL2 /// KIR2DL4 /// KIR2DL5A /// KIR2DL5B /// KIR2DS1 /// KIR2DS2 /// KIR2DS3 /// KIR2DS4 /// KIR3DL3 /// KIR3DL3 /// KIR3DS1 (11738374_at) / RFU C1QL1 (11718748_at) / Fold change /veh C1QL1 (11718748_at) / RFU TMPRSS4 (11747572_a_at) / Fold change /veh TMPRSS4 (11747572_a_at) / RFU HAMP (11756126_x_at) / Fold change /veh HAMP (11756126_x_at) / RFU RNFT2 (11725882_a_at) / Fold change /veh RNFT2 (11725882_a_at) / RFU NR4A2 (11747474_a_at) / Fold change /veh NR4A2 (11747474_a_at) / RFU ABCC12 (11746883_a_at) / Fold change /veh ABCC12 (11746883_a_at) / RFU TMEM136 (11760407_x_at) / Fold change /veh TMEM136 (11760407_x_at) / RFU CLDN22 /// WWC2 (11732394_at) / Fold change /veh CLDN22 /// WWC2 (11732394_at) / RFU HLA-DPB1 (11760878_x_at) / Fold change /veh HLA-DPB1 (11760878_x_at) / RFU SPINT1 (11716480_a_at) / Fold change /veh SPINT1 (11716480_a_at) / RFU GAP43 (11754022_s_at) / Fold change /veh GAP43 (11754022_s_at) / RFU A4GNT (11735810_at) / Fold change /veh A4GNT (11735810_at) / RFU PRB3 (11715151_x_at) / Fold change /veh PRB3 (11715151_x_at) / RFU TUBB4B (11761932_at) / Fold change /veh TUBB4B (11761932_at) / RFU CAPN14 (11732068_a_at) / Fold change /veh CAPN14 (11732068_a_at) / RFU TMCC2 (11721928_a_at) / Fold change /veh TMCC2 (11721928_a_at) / RFU IRGQ (11745062_a_at) / Fold change /veh IRGQ (11745062_a_at) / RFU FAM174B (11720279_a_at) / Fold change /veh FAM174B (11720279_a_at) / RFU TMPRSS4 (11748680_a_at) / Fold change /veh TMPRSS4 (11748680_a_at) / RFU FAM212B (11763350_a_at) / Fold change /veh FAM212B (11763350_a_at) / RFU PLEKHG5 (11743358_a_at) / Fold change /veh PLEKHG5 (11743358_a_at) / RFU ZSCAN30 (11745921_a_at) / Fold change /veh ZSCAN30 (11745921_a_at) / RFU CMKLR1 (11741424_a_at) / Fold change /veh CMKLR1 (11741424_a_at) / RFU LOC101060620 /// MAPK8IP1 (11723275_at) / Fold change /veh LOC101060620 /// MAPK8IP1 (11723275_at) / RFU SPTSSB (11747773_x_at) / Fold change /veh SPTSSB (11747773_x_at) / RFU PRSS12 (11739890_at) / Fold change /veh PRSS12 (11739890_at) / RFU BIN1 (11741810_x_at) / Fold change /veh BIN1 (11741810_x_at) / RFU WNT11 (11732464_a_at) / Fold change /veh WNT11 (11732464_a_at) / RFU C10orf10 (11716521_a_at) / Fold change /veh C10orf10 (11716521_a_at) / RFU C5orf56 (11738089_at) / Fold change /veh C5orf56 (11738089_at) / RFU CYB561 (11721691_x_at) / Fold change /veh CYB561 (11721691_x_at) / RFU ANKRD19P (11752326_a_at) / Fold change /veh ANKRD19P (11752326_a_at) / RFU OR2T12 /// OR2T33 /// OR2T8 (11738714_s_at) / Fold change /veh OR2T12 /// OR2T33 /// OR2T8 (11738714_s_at) / RFU VCAN (11748164_a_at) / Fold change /veh VCAN (11748164_a_at) / RFU JSRP1 (11732532_at) / Fold change /veh JSRP1 (11732532_at) / RFU KRTAP10-11 (11738290_x_at) / Fold change /veh KRTAP10-11 (11738290_x_at) / RFU MYO3A (11730013_a_at) / Fold change /veh MYO3A (11730013_a_at) / RFU EBF3 (11725865_a_at) / Fold change /veh EBF3 (11725865_a_at) / RFU CAMK2N1 (11719241_x_at) / Fold change /veh CAMK2N1 (11719241_x_at) / RFU C5orf56 (11738088_a_at) / Fold change /veh C5orf56 (11738088_a_at) / RFU OLFML3 (11715873_a_at) / Fold change /veh OLFML3 (11715873_a_at) / RFU LOC100653217 /// NTM (11731650_a_at) / Fold change /veh LOC100653217 /// NTM (11731650_a_at) / RFU MAPK11 (11762145_a_at) / Fold change /veh MAPK11 (11762145_a_at) / RFU FIZ1 (11724087_x_at) / Fold change /veh FIZ1 (11724087_x_at) / RFU OASL (11726364_x_at) / Fold change /veh OASL (11726364_x_at) / RFU SOX15 (11748057_x_at) / Fold change /veh SOX15 (11748057_x_at) / RFU CD79A (11719716_a_at) / Fold change /veh CD79A (11719716_a_at) / RFU HIST1H1D (11736915_at) / Fold change /veh HIST1H1D (11736915_at) / RFU CASKIN2 (11723855_a_at) / Fold change /veh CASKIN2 (11723855_a_at) / RFU LOC730098 (11760151_x_at) / Fold change /veh LOC730098 (11760151_x_at) / RFU OR4N2 (11742367_at) / Fold change /veh OR4N2 (11742367_at) / RFU PRRT2 (11749266_a_at) / Fold change /veh PRRT2 (11749266_a_at) / RFU SNX32 (11753110_a_at) / Fold change /veh SNX32 (11753110_a_at) / RFU CDHR5 (11726645_a_at) / Fold change /veh CDHR5 (11726645_a_at) / RFU RCAN1 (11760418_a_at) / Fold change /veh RCAN1 (11760418_a_at) / RFU FAM167A (11723789_a_at) / Fold change /veh FAM167A (11723789_a_at) / RFU FAM26E (11764081_at) / Fold change /veh FAM26E (11764081_at) / RFU ISYNA1 (11749810_s_at) / Fold change /veh ISYNA1 (11749810_s_at) / RFU ACY1 (11761880_at) / Fold change /veh ACY1 (11761880_at) / RFU 11764098_at / Fold change /veh 11764098_at / RFU SAMD14 (11745864_x_at) / Fold change /veh SAMD14 (11745864_x_at) / RFU NPB (11741838_a_at) / Fold change /veh NPB (11741838_a_at) / RFU TMPRSS6 (11731388_a_at) / Fold change /veh TMPRSS6 (11731388_a_at) / RFU KRTAP10-2 (11738614_at) / Fold change /veh KRTAP10-2 (11738614_at) / RFU ARHGAP8 /// PRR5-ARHGAP8 (11727945_x_at) / Fold change /veh ARHGAP8 /// PRR5-ARHGAP8 (11727945_x_at) / RFU KRTAP5-7 /// NADSYN1 (11734609_at) / Fold change /veh KRTAP5-7 /// NADSYN1 (11734609_at) / RFU RASL12 (11751679_a_at) / Fold change /veh RASL12 (11751679_a_at) / RFU CDKN2B (11736163_a_at) / Fold change /veh CDKN2B (11736163_a_at) / RFU PRF1 (11729649_at) / Fold change /veh PRF1 (11729649_at) / RFU, ZNF638 /// ZNF638-IT1 / Fold change vs veh, ZNF638 /// ZNF638-IT1 / RFU, PANK3 / Fold change vs veh, PANK3 / RFU, SH3YL1 / Fold change vs veh, SH3YL1 / RFU, ZEB2 / Fold change vs veh, ZEB2 / RFU, NRIP1 / Fold change vs veh, NRIP1 / RFU, PTTG1IP / Fold change vs veh, PTTG1IP / RFU, CAPN2 / Fold change vs veh, CAPN2 / RFU, MED14 / Fold change vs veh, MED14 / RFU, SNORA58 / Fold change vs veh, SNORA58 / RFU, C1orf63 / Fold change vs veh, C1orf63 / RFU, LRRFIP1 / Fold change vs veh, LRRFIP1 / RFU, NDUFAF7 / Fold change vs veh, NDUFAF7 / RFU, SLC12A2 / Fold change vs veh, SLC12A2 / RFU, IBTK / Fold change vs veh, IBTK / RFU, ESF1 / Fold change vs veh, ESF1 / Fold change vs veh, TMEM50B / RFU, TAOK1 / Fold change vs veh, TAOK1 / RFU, ACBD3 / Fold change vs veh, ACBD3 / RFU, TMA16 / Fold change vs veh, TMA16 / RFU, RWDD3 / Fold change vs veh, RWDD3 / RFU, BCAT1 / Fold change vs veh, BCAT1 / RFU, EDEM3 / Fold change vs veh, EDEM3 / RFU, TMEM33 / Fold change vs veh, TMEM33 / RFU, WDR75 / Fold change vs veh, WDR75 / RFU, AHCTF1 / Fold change vs veh, AHCTF1 / RFU, TFRC / Fold change vs veh, TFRC / RFU, ZDHHC17 / Fold change vs veh, ZDHHC17 / RFU, NOM1 / Fold change vs veh, NOM1 / RFU, ARL8B / Fold change vs veh, ARL8B / RFU, ZBTB11 / Fold change vs veh, ZBTB11 / RFU, TAMM41 / Fold change vs veh, TAMM41 / RFU, KIAA1704 /// LOC100996395 / Fold change vs veh, KIAA1704 /// LOC100996395 / RFU, ING1 / Fold change vs veh, ING1 / RFU, TRMT61B / Fold change vs veh, TRMT61B / RFU, FUBP3 / Fold change vs veh, FUBP3 / RFU, TP53 / Fold change vs veh, TP53 / RFU, TNKS2 / Fold change vs veh, TNKS2 / RFU, ZFP14 / Fold change vs veh, ZFP14 / RFU, ACTR2 / Fold change vs veh, ACTR2 / RFU, PPP3R1 / Fold change vs veh, PPP3R1 / RFU, PIK3R1 / Fold change vs veh, PIK3R1 / RFU, HNRNPA1 / Fold change vs veh, HNRNPA1 / RFU, RNF170 / Fold change vs veh, RNF170 / RFU, ZNF28 / Fold change vs veh, ZNF28 / RFU, RNGTT / Fold change vs veh, RNGTT / RFU, OGT / Fold change vs veh, OGT / RFU, BRD1 / Fold change vs veh, BRD1 / RFU, MARS / Fold change vs veh, MARS / RFU, ZNF655 / Fold change vs veh, ZNF655 / RFU, FAHD1 / Fold change vs veh, FAHD1 / RFU, BDP1 / Fold change vs veh, BDP1 / RFU, LRRCC1 / Fold change vs veh, LRRCC1 / RFU, ARID1A / Fold change vs veh, ARID1A / RFU, ZNF146 / Fold change vs veh, ZNF146 / RFU, ZNF330 / Fold change vs veh, ZNF330 / RFU, GPN3 / Fold change vs veh, GPN3 / RFU, C9orf123 / Fold change vs veh, C9orf123 / RFU, N4BP2L2 / Fold change vs veh, N4BP2L2 / RFU, ARFIP1 / Fold change vs veh, ARFIP1 / RFU, FAM179B / Fold change vs veh, FAM179B / RFU, BCL10 / Fold change vs veh, BCL10 / RFU, UHRF1BP1L / Fold change vs veh, UHRF1BP1L / RFU, BET1 / Fold change vs veh, BET1 / RFU, CNOT2 / Fold change vs veh, CNOT2 / RFU, ZNF268 / Fold change vs veh, ZNF268 / Fold change vs veh, ZNF507 / RFU, DGCR2 / Fold change vs veh, DGCR2 / RFU, WDSUB1 / Fold change vs veh, WDSUB1 / Fold change vs veh, HSP90B1 /// MIR3652 / RFU, ADSS / Fold change vs veh, ADSS / RFU, GK / Fold change vs veh, GK / RFU, ZNF148 / Fold change vs veh, ZNF148 / RFU, TAF9 / Fold change vs veh, TAF9 / RFU, SLC1A5 / Fold change vs veh, SLC1A5 / RFU, SLMO2 / Fold change vs veh, SLMO2 / RFU, ABCC4 / Fold change vs veh, ABCC4 / RFU, LOC101060439 /// RAP1B / Fold change vs veh, LOC101060439 /// RAP1B / RFU, RFX7 / Fold change vs veh, RFX7 / RFU, GTPBP10 / Fold change vs veh, GTPBP10 / RFU, CNEP1R1 / Fold change vs veh, CNEP1R1 / RFU, BIVM-ERCC5 /// ERCC5 / Fold change vs veh, BIVM-ERCC5 /// ERCC5 / RFU, ILF3 / Fold change vs veh, ILF3 / RFU 11762660_at / Fold change /veh 11762660_at / RFU VCAN (11757783_s_at) / Fold change /veh VCAN (11757783_s_at) / RFU DDX43 (11728927_at) / Fold change /veh DDX43 (11728927_at) / RFU KRT8 (11758188_x_at) / Fold change /veh KRT8 (11758188_x_at) / RFU NKD1 (11759106_at) / Fold change /veh NKD1 (11759106_at) / RFU SRD5A1 (11742802_a_at) / Fold change /veh SRD5A1 (11742802_a_at) / RFU TPSAB1 /// TPSB2 (11721975_s_at) / Fold change /veh TPSAB1 /// TPSB2 (11721975_s_at) / RFU GSTM3 (11746129_a_at) / Fold change /veh GSTM3 (11746129_a_at) / RFU IL23R (11737362_x_at) / Fold change /veh IL23R (11737362_x_at) / RFU TMEM51 (11727254_a_at) / Fold change /veh TMEM51 (11727254_a_at) / RFU PIWIL2 (11732686_x_at) / Fold change /veh PIWIL2 (11732686_x_at) / RFU ORM1 (11744905_x_at) / Fold change /veh ORM1 (11744905_x_at) / RFU CCDC152 (11743942_at) / Fold change /veh CCDC152 (11743942_at) / RFU ECM1 (11717891_a_at) / Fold change /veh ECM1 (11717891_a_at) / RFU IL23R (11748794_a_at) / Fold change /veh IL23R (11748794_a_at) / RFU TNFAIP8L3 (11732012_x_at) / Fold change /veh TNFAIP8L3 (11732012_x_at) / RFU MBOAT4 (11741988_at) / Fold change /veh MBOAT4 (11741988_at) / RFU 11764193_at / Fold change /veh 11764193_at / RFU TMEM53 (11763286_at) / Fold change /veh TMEM53 (11763286_at) / RFU MAGEB2 (11727129_at) / Fold change /veh MAGEB2 (11727129_at) / RFU TMEM200A (11744735_a_at) / Fold change /veh TMEM200A (11744735_a_at) / RFU CCDC152 (11751479_a_at) / Fold change /veh CCDC152 (11751479_a_at) / RFU FAM211A (11726209_a_at) / Fold change /veh FAM211A (11726209_a_at) / RFU RGS16 (11746705_a_at) / Fold change /veh RGS16 (11746705_a_at) / RFU VCAN (11755009_s_at) / Fold change /veh VCAN (11755009_s_at) / RFU RHOB (11743442_s_at) / Fold change /veh RHOB (11743442_s_at) / RFU RGS16 (11720943_a_at) / Fold change /veh RGS16 (11720943_a_at) / RFU RGS16 (11720944_at) / Fold change /veh RGS16 (11720944_at) / RFU, VPS4B / Fold change vs veh, VPS4B / RFU, CREB1 / Fold change vs veh, CREB1 / RFU, DNAJC13 / Fold change vs veh, DNAJC13 / RFU, GNAQ / Fold change vs veh, GNAQ / RFU, CDK5R1 / Fold change vs veh, CDK5R1 / RFU, ZRANB3 / Fold change vs veh, ZRANB3 / RFU, CUL4A / Fold change vs veh, CUL4A / RFU, CCNY / Fold change vs veh, CCNY / RFU, UFL1 / Fold change vs veh, UFL1 / RFU, COG3 / Fold change vs veh, COG3 / RFU, DIAPH2 / Fold change vs veh, DIAPH2 / RFU, SKA2 / Fold change vs veh, SKA2 / RFU, AFF3 / Fold change vs veh, AFF3 / RFU, LMF1 / Fold change vs veh, LMF1 / RFU, IPO11 / Fold change vs veh, IPO11 / RFU, DFFB / Fold change vs veh, DFFB / RFU, FOXP1 / Fold change vs veh, FOXP1 / RFU, CARD8 / Fold change vs veh, CARD8 / RFU, STRN3 / Fold change vs veh, STRN3 / RFU, ADK / Fold change vs veh, ADK / RFU, RASSF2 / Fold change vs veh, RASSF2 / RFU, WIPF1 / Fold change vs veh, WIPF1 / RFU, LARP1B / Fold change vs veh, LARP1B / RFU, RASA1 / Fold change vs veh, RASA1 / RFU, RB1 / Fold change vs veh, RB1 / RFU, PPFIA1 / Fold change vs veh, PPFIA1 / RFU, MAT2A / Fold change vs veh, MAT2A / RFU, CCT5 / Fold change vs veh, CCT5 / RFU, WDR92 / Fold change vs veh, WDR92 / RFU, CUX1 / Fold change vs veh, CUX1 / RFU, TTC7A / Fold change vs veh, TTC7A / RFU, TMEM135 / Fold change vs veh, TMEM135 / RFU, DEPTOR / Fold change vs veh, DEPTOR / RFU, CPM / Fold change vs veh, CPM / RFU, DNAJB6 / Fold change vs veh, DNAJB6 / RFU, CACNA2D3 / Fold change vs veh, CACNA2D3 / RFU, DTX4 / Fold change vs veh, DTX4 / RFU, TFCP2 / Fold change vs veh, TFCP2 / RFU, GMCL1 /// GMCL1P1 / Fold change vs veh, GMCL1 /// GMCL1P1 / RFU, AEBP2 / Fold change vs veh, AEBP2 / RFU, SNHG1 /// SNORD22 /// SNORD25 /// SNORD26 /// SNORD27 /// SNORD28 /// SNORD29 /// SNORD31 / Fold change vs veh, SNHG1 /// SNORD22 /// SNORD25 /// SNORD26 /// SNORD27 /// SNORD28 /// SNORD29 /// SNORD31 / Fold change (Aza/veh), C12orf56 (ProbeSet 11735607_a_at) / Fold change (ACY-1035/veh), C12orf56 (ProbeSet 11735607_a_at) / Fold change (Aza/veh), FGFR1OP (ProbeSet 11751329_s_at) / Fold change (ACY-1035/veh), FGFR1OP (ProbeSet 11751329_s_at) / Fold change (Aza/veh), VPS36 (ProbeSet 11739960_a_at) / Fold change (ACY-1035/veh), VPS36 (ProbeSet 11739960_a_at) / RFU SYPL1 (11715823_x_at) / Fold change /veh SYPL1 (11715823_x_at) / RFU IGFBP7 (11715501_s_at) / Fold change /veh IGFBP7 (11715501_s_at) / RFU REEP3 (11722064_at) / Fold change /veh REEP3 (11722064_at) / RFU IGLL1 (11728026_x_at) / Fold change /veh IGLL1 (11728026_x_at): dose or concentration left out as unconfirmed. Particulars: MV-4-11 cells, 48 hours.

Results on one compound are retold here after publication PMC5218480 (PLoS ONE, 2017).

Regarding `Nc1ncn([C@@H]2O[C@H](CO)[C@@H](O)[C@H]2O)c(=O)n1` [azacitidine], the “Fold change /veh LOC101060620 /// MAPK8IP1 (11723275_at)” value was 0.98.
